# Results reported in PubChem BioAssay AID1996.
# Details: buffer; pH 7.4; 200.0 µM
row,SMILES,solubility kinetic [µg/mL]
1,O=C(NCCc1ccc(F)cc1)c1cc(=O)c2ccccc2o1,9.4
2,Cc1cc(Nc2ccc(N(C)C)cc2)n2ncnc2n1,> 40.2
3,O=c1cc[nH]c2ccc([N+](=O)[O-])cc12,> 28.5
4,Cc1cc(C)cc(OCC(=O)NC(C)c2ccccc2)c1 (centres undefined),28.8
5,COc1ccc(CCNC(=O)c2c(C)nc3ccccn23)cc1OC,> 50.9
6,COc1ccccc1-n1ccnc1SCC(=O)NC(C)(C)C,43.9
7,COc1ccc(OC)c(NC(=O)Nc2ccc3c(c2)CCC3)c1,1.3
8,COCCNc1oc(-c2ccccc2Cl)nc1S(=O)(=O)c1ccc(C)cc1,44.1
9,c1ccc(CNc2nc(-c3ccccn3)nc3ccccc23)cc1,29.1
10,COc1ccc(OC)c(-c2cc(C(=O)Nc3ccccc3C(N)=O)c3ccccc3n2)c1,5.9
11,Cc1ccc(C(=O)NC(=S)N2CCCCCC2)cc1,> 41.5
12,Nc1ccc(C(=O)OCC(=O)Nc2cccc(S(=O)(=O)NC3=NCCCCC3)c2)cc1[N+](=O)[O-],4.7
13,CNP(=O)(Oc1ccccc1)OC12CC3CC(CC(C3)C1)C2 (centres undefined),> 48.2
14,CCOC(=O)c1c(C)[nH]c(-c2csc(C)n2)c1C,27.5
15,Nc1c(C(=O)N2CCOCC2)sc2nc3c(cc12)CCCC3,> 47.6
16,Br.c1ccc(NC2=NCCCS2)cc1,> 41
17,COc1ccc2c(ccc[n+]2CC(=O)c2ccccc2)c1.[Br-],> 53.7
18,Nc1cccc([N+](=O)[O-])c1,16.7
19,CCOc1ccc(NC(=O)CSc2ncn[nH]2)cc1,> 41.7
20,O=C(Nc1ccc([N+](=O)[O-])cc1)N1CCCCCC1,> 39.5
21,CCOc1cc(Br)c(C(C)NC(=O)c2cccnc2)cc1OCC (centres undefined),> 59
22,CN(C)CCCN1C(=O)C2CCc3[nH]c4ccccc4c3C2C1=O (centres undefined),> 48.8
23,C=CCn1cnnc1SCC(=O)Nc1cccnc1Cl,> 46.5
24,CC1=CC(C)(C)N=C(Nc2nc(C)c3cc(C)cc(C)c3n2)N1,> 46.4

row,SMILES,solubility kinetic [µg/mL]
1,CCCC12CN3CC(CCC)(CN(C1)C3c1ccco1)C2=O (centres undefined),> 45.4
2,CCCN1C(=O)c2ccccc2NC1c1ccc(O)c(OCC)c1 (centres undefined),> 49
3,CC(=O)c1c(C(=O)O)c2ccccc2[nH]c1=O,34
4,O=C(O)C1Cc2ccccc2CN1C(=O)c1ccco1 (centres undefined),30.7
5,S=c1[nH]ccn1-c1ccccc1Cl,> 31.6
6,Cc1ccc2[nH]c(C(=O)N3CCN(c4cccc(Cl)c4)CC3)cc2c1,< 0.3
7,CC(C)C(=O)Nc1c2c(nn1-c1ccc(F)cc1)CS(=O)(=O)C2,> 50.6
8,Cl.N=C(N)N1CCc2ccccc21,28.1
9,Cl.NCCCCCC(=O)Nc1ccncc1,> 36.6
10,CCOc1ccc2[nH]c3c(=O)n(CCC4=CCCCC4)cnc3c2c1,10.7
11,CC(C)(C)C(=O)N(Cc1ccc(Cl)cc1)c1cnccn1,> 45.6
12,CCC(C)c1ccccc1NC(=S)NC(=O)c1ccco1 (centres undefined),6
13,Cc1cc(S(=O)(=O)c2ccc([N+](=O)[O-])cn2)ccc1Br,1.7
14,Cc1ccc2[nH]c(=O)c(CN(C(=O)c3cccc([N+](=O)[O-])c3)C(C)(C)C)cc2c1,2.9
15,CC(C)C(NS(=O)(=O)c1ccccc1)C(=O)N1CCCCCC1 (centres undefined),> 50.8
16,O=C(OCC(=O)c1ccc(Cl)cc1Cl)c1cnccn1,> 46.7
17,Cc1ccnc(NC(=O)c2cccc(NC(=O)c3ccccc3C)c2)c1,2.1
18,CCCCn1c(C)c(C(=O)O)c2cc(OC)c3ccccc3c21,2.9
19,CCOC(=O)N1CCC(NC(=O)Cc2ccccc2)CC1,> 43.6
20,O=C(NC1CCCC1)c1cccc(Cl)c1,32.6
21,CC(C)(C)NC(=O)COC(=O)c1c2c(nc3ccccc13)CCC2,35.8
22,Cc1ccc(SCC(=O)c2ccc[nH]2)cc1,24.6
23,CC(OC(=O)c1c[nH]c2ccccc12)C(=O)N1CCCC1 (centres undefined),> 42.9
24,COc1ccccc1N1CCN(c2nc(C)cc(C)c2C#N)CC1,10.4

row,SMILES,solubility kinetic [µg/mL]
1,Cc1cc(=O)[nH]c(=O)n1Cc1ccccc1,19.2
2,COc1ccc(Oc2cccc(Cl)c2CNC(=O)CCC(=O)O)cc1,49.5
3,CCOc1ccc(Br)cc1C(=S)N1CCCC1,6.2
4,O=c1[nH]c2c(Br)cnc([N+](=O)[O-])c2[nH]1,> 38.9
5,OC(CCN1CCOCC1)c1ccccc1 (centres undefined),31.3
6,Cc1cc(N2CCOCC2)nc2ccc(Cl)cc12,1.7
7,COc1ccc(S(=O)(=O)NCc2ccc(F)cc2)cc1OC,> 48.8
8,O=C(NCc1ccc2c(c1)OCO2)Nc1ccc(F)cc1,3.1
9,Cc1cc(C(=O)N2CCCC(Nc3ccc(F)cc3)C2)c(C)o1 (centres undefined),> 47.5
10,Cl.O=[N+]([O-])c1ccc(OCC(O)CNC2CCCC2)cc1 (centres undefined),> 47.5
11,O=C(NCc1ccc2c(c1)OCO2)C1CCC(=O)N1C1CCCC1 (centres undefined),> 49.6
12,O=C(NCCc1ccccc1)C(=O)NCC1CCNCC1,> 43.4
13,COc1ccc(S(=O)(=O)n2ccnc2C)c(C)c1C,> 42.1
14,O=C(O)c1ccc2c(c1)C(=O)N(c1nccs1)C2=O,> 41.1
15,Cc1cccc(C)c1OCC(=O)Nc1cccc(C(=O)O)c1,> 44.9
16,Nc1ccc(N2CCCCC2)c2nonc12,> 32.7
17,O=c1[nH]c(-c2ccccc2)cnc1-c1ccccc1,0.4
18,O=C(O)C1C2C=CC(C2)C1C(=O)Nc1ccccc1Br (centres undefined),> 50.4
19,O=C1C2C3C=CC(CC3)C2C(=O)N1c1ccc(Cl)cc1Cl (centres undefined),9.7
20,CCCNC(=O)CSc1nc2ccc(OCC)cc2s1,7.2
21,COCCNC(=O)C(=O)c1c(-c2ccccc2)[nH]c2ccccc12,> 48.4
22,CC(C)CCOc1ccc(C(=O)C[N+]2(C)CCOCC2)cc1.[I-],38.4
23,Cn1c(=O)oc2cc(S(=O)(=O)Nc3ccccc3F)ccc21,15.6
24,Cc1ccc(NC(=O)CN2C(=O)c3ccccc3C2=O)c(C)c1,4.4

row,SMILES,solubility kinetic [µg/mL]
1,COCCCNC(=O)c1cc2cc3cc(OC)ccc3nc2o1,> 47.2
2,Cc1c(NS(=O)(=O)c2cc(C(=O)N3CCCC(C)C3)ccc2Cl)c(=O)n(-c2ccccc2)n1C (centres undefined),> 75.5
3,CC(C)Oc1cccc(C(=O)C2CCCN(C3CCOCC3)C2)c1 (centres undefined),31
4,COc1ccccc1CNC(=O)c1cccnc1,> 36.3
5,COc1ccc(CNC(=S)Nc2ccccc2Cl)cc1,12
6,O=C(COc1ccccc1)Nc1ccc(NC(=O)c2ccco2)cc1,2.6
7,CC1CCCN(C(=O)C2CCN(C(=O)Nc3ccccc3)CC2)C1 (centres undefined),> 49.4
8,CCN(CC)S(=O)(=O)c1cccc(NC(=O)CC2CCCC2)c1,33
9,O=C(COC(=O)c1ccccc1Cl)NC1CCCCCCC1,34.1
10,CN(CC(=O)Nc1ccc(OC(F)(F)F)cc1)C(=O)Cc1cccs1,9.3
11,Cc1ccc(C2=NN(CC(=O)NCc3cccs3)C(=O)CC2)cc1,> 51.2
12,COc1cc(CC(=O)OCC(=O)c2ccc[nH]2)cc(OC)c1OC,> 50
13,Cn1c(=O)[nH]c(=O)c2cc(C(=O)c3cc(F)ccc3O)cnc21,8
14,O=C1Cc2ccccc2C(=O)N1c1ccc(F)cc1Cl,37.3
15,O=C1Nc2ccccc2C1Cc1ccc(OC(F)(F)F)cc1 (centres undefined),37.3
16,Cc1ccc(NC(=O)CN(C)C(=O)COC(=O)[C@@H](NC(=O)c2ccccc2F)C(C)C)cc1,> 68.6
17,Cc1ccc(S(=O)(=O)n2cccc2C)cc1,5.1
18,CCC[N+](CC#CCO)(CC#Cc1ccccc1)CCC.[Br-],> 54.6
19,Cc1ccc(NC(=S)N(N)CCO)cc1,> 33.8
20,O=c1oc2cc(Br)ccc2n1Cc1ccccc1,< 0.7
21,COc1ccc(-n2cnc3ccccc3c2=O)c([N+](=O)[O-])c1,> 44.6
22,COc1ccc(NC(=O)c2ccc3c(c2)NC(=O)CO3)cc1OC,10.2
23,COc1ccc(NC(=O)CS(=O)c2ccccc2Cl)cc1 (centres undefined),> 48.6
24,COC(=O)c1ccc(COc2cccnc2[N+](=O)[O-])cc1,4.2

row,SMILES,solubility kinetic [µg/mL]
1,CC1(C)N2CC3([N+](=O)[O-])CN1CC([N+](=O)[O-])(C2)C3,34.5
2,Cc1ncc2c(n1)-c1cc(F)ccc1SC2,28.9
3,O=C(Nc1nc(-c2cccnc2)cs1)c1cccc([N+](=O)[O-])c1,0.9
4,CC(C)N(C(=O)Cn1cc(SCC(N)=O)c2ccccc21)C(C)C,> 52.1
5,CCOC(=O)C1CCN(C(=O)COC(=O)c2c(C)c(CC)nc3ccccc23)CC1,20.3
6,Cc1nc2ccccn2c1-c1csc(Nc2ccc(C(=O)O)cc2)n1,2.5
7,CC(C)CNC(=O)N[C@@H](CC(C)C)C(=O)O,> 34.5
8,CN(C)c1ccc(-n2cccc2/C=C/[N+](=O)[O-])cc1,< 0.2
9,Cc1ccc(OCCSc2nc3ncnc(N)c3[nH]2)cc1,3.8
10,CC1CCN(C(=O)COC(=O)c2cc3ccccc3oc2=O)CC1,> 49.4
11,O=C(NC1CC1)C1CC(=O)N(c2ccccc2)C1 (centres undefined),> 36.6
12,O=[N+]([O-])c1cc(CN2CCC(O)CC2)ccc1Cl,38.9
13,COc1ccc(/C=N\Nc2ncc(F)c(N3CCOCC3)n2)cc1OC,> 54.2
14,CCOC(=O)c1c(O)c2cc(Cl)ccc2n(CC)c1=O,> 44.4
15,CC(=Nc1ccc2c(c1)CCC2)c1c(O)n(-c2ccccc2)c(=O)[nH]c1=O,< 0.3
16,COc1cccc(Nc2nc(C)nc3c2oc2ccccc23)c1,0.3
17,Cc1ccc(/C(N)=N/OC(=O)c2ccc3ccccc3c2)cc1,1
18,COc1ccc(CC(=O)NC2CC(C)(C)NC(C)(C)C2)cc1OC.Cl,> 55.6
19,C=CCN(C(=O)c1ccccc1)C1CCS(=O)(=O)C1 (centres undefined),37.4
20,Cc1ncc(CN2CCC(CO)(CCOc3ccccc3)CC2)s1,48.2
21,CCOc1ccc(C(=O)OCC(=O)NCC2CCCO2)cc1 (centres undefined),> 46.1
22,COc1ccc(C(=O)NCCc2c[nH]c3ccc(OC)cc23)cc1,> 48.7
23,Fc1ccc2[nH]c3c(Cl)ncnc3c2c1,7.9
